From patent publication EP1347751B1, “METHODS OF TREATING BONE CANCER AND THE PAIN ASSOCIATED THEREWITH USING ENDOTHELIN ANTAGONISTS” (ABBOTT LABORATORIES, priority 2000, dated 2002)

How the values were obtained:
[1] = test system: Interleukin-6; assay: Interleukin-6 levels in serum of treated subjects (sandwich immunoassay); assay type: in vivo, human; settings: men with hormone refractory prostate cancer, 2.5 mg or 10 mg vs placebo, AUC, Figure 1
Protocol: (§1) Studies were performed on male subjects with asymptomatic hormone refractory prostate cancer with rising PSA levels and on male subjects with symptomatic hormone refractory prostate cancer with rising PSA levels and pain. Subjects in the phase II studies had castrate levels of testosterone, either due to pharmacologic intervention, via leuprolide (Lupron®) or goserelin (Zoladex®), or via surgical castration. Subjects received ABT-627 or placebo. The following tests were conducted: • ABT-627 was formulated in 2.5 and 10 mg doses. An oral liquid formulation of ABT-627 was also prepared as follows: 1 mg/ml ABT-627, 50% glycerin, 14% alcohol, and water. Matching placebos were also provided.
(§2) A number of recognized or putative biochemical markers of disease progression have been used to monitor treatment of individuals with prostate cancer. […]
The effect of ABT-627 adminstration on Interleukin-6 levels in human serum samples was determined at Quintiles Laboratories using a sandwich immunoassay. […] After incubation, the wells were washed, and the bound enzymatic activity was measured using a chromogenic substrate. […]

[2] = test system: bone alkaline phosphatase (BAP); assay: Bone Alkaline Phosphatase levels in treated subjects (Alkphase-B assay); assay type: in vivo, human; settings: men with hormone refractory prostate cancer; 10 mg vs placebo; AUC, Figure 5
Protocol: as §1
(§3) Markers of osteoblastic activity were assessed using urine samples. Bone markers include bone alkaline phosphatase (BAP), deoxypridinoline, and N-telopeptide of Type I collagen. Blood samples were collected prior to dosing on Day 1, Day 42, Day 84, Day 168, and every 28 days after Day 168, with a final collection on the last day of the study.
Bone Alkaline Phosphatase levels were determined using the bone-specific Alkphase-B® assay published by Metra Biosystems (Mountain View, CA).

[3] = test system: Chromagranin-A; assay: Chromagranin-A levels in serum of treated subjects (two site chemiluminescence assay, ICMA); assay type: in vivo, human; settings: men with hormone refractory prostate cancer, 2.5 mg/day, AUC, Figure 8
Protocol: as §1, §2
The effect of ABT-627 adminstration on Chromagranin-A levels in human serum samples was determined by proprietary assay conducted at the Nichols Institute. […] The bound, acridinium-labeled material produces light that is detected in a luminometer after addition of triggering agents. […]

[4] = test system: carboxyterminal cross-linked telopeptide of type I collagen (ICTP); assay: Crosslinked N-telopeptide levels in treated subjects (DiaSorin ICTP radioimmunoassay); assay type: in vivo; settings: men with hormone refractory prostate cancer; human serum; 10 mg vs placebo; AUC, Figure 4
Protocol: as §1, §3
Cross-linked N-telopeptide levels were determined using the DiaSorin (Stillwater, MN) assay for the quantitative determination of carboxyterminal cross-linked telopeptide of type I collagen (ICTP) in human serum by equilibrium radioimmunoassay (RIA). […] The bound tracer in the pellet was counted with a gamma counter. […]

[5] = test system: Acid Phosphatase (ACP); assay: Acid Phosphatase levels in serum of treated subjects (Sigma Diagnostics ACP Procedure No. 435); assay type: in vivo, human; settings: men with hormone refractory prostate cancer, treated vs placebo, AUC, Figure 7
Protocol: as §1, with “provided. […]” for “provided.”
The effect of ABT-627 administration on Acid Phosphatase levels in human subject serum samples was determined at Quintiles Laboratories using the chemical test described in Sigma Diagnostics Acid Phosphatase (ACP) Procedure No. 435. […] The alpha-naphthol immediately reacts with fast red TR salt to produce a yellow chromophore with an absorbance maximum at 405 nm. The rate of increase in absorbance at 405 nm is directly proportional to ACP activity in the sample. ACP activity was determined in the presence and absence of L-tartrate, the difference being attributed to prostatic acid phosphatase activity. […]

[6] = Visual Analog Scale (VAS) pain assessment in treated subjects; assay type: in vivo, human; settings: men with symptomatic hormone refractory prostate cancer; 2.5 mg or 10 mg vs placebo; independent of the effects of morphine; AUC, Figure 3
Protocol: as §1, with “provided. […]” for “provided.”
During the course of the study, pain asessments were done daily, at bedtime, by the subject. […] The log also contained a table on which was recorded all daily pain medication consumed by the patient. […] Clinical personnel who received the logs measured the score by measuring the distance (in mm) from the "no pain" end mark to the point where the subject's line crossed the VAS line. […]
The weekly VAS scores were calculated excluding the lowest and highest score for each week and averaging the remaining five scores. […]

[7] = test system: prostate specific antigen (PSA); assay: Prostate Specific Antigen level assay (Chiron ACS: Centaur PSA2 sandwich immunoassay) in serum of treated subjects; assay type: in vivo, human; settings: men with hormone refractory prostate cancer; oral 2.5 mg or 10 mg vs placebo; AUC, Figure 2
Protocol: as §1, §2
The effect of ABT-627 administration on prostate specific antigen (PSA) levels in human subject serum samples was determined using the procedure described in the Chiron Diagnostics ACS: Centaur PSA2 Assay. […]
Briefly, a subject population was treated with a placebo or 2.5 mg or 10 mg of ABT-627. […] A direct relationship exists between the amount of PSA present in the patient sample and the RLU's (relative light units) detected.

[8] = Bone scan (Tc-99m phosphonate, bone scan index) in treated subjects; assay type: in vivo, human; settings: men with hormone refractory prostate cancer; bone scans; 10 mg versus placebo; Figure 6
Protocol: as §1
Bone scans were performed with an NDA approved, Tc-99m phosphonate type radiopharmaceutical. This technique uses whole body format (skull to feet) so that anterior and posterior images are presented when using a 510 K-approved gamma camera. […] Each site was evaluated against a confidence score of 1 to 5, where 1 is negative, 2 is probably negative, 3 is equivocal, 4 is probably positive, and 5 is definitely positive. […] In addition, in a blinded study, a reference nuclear medicine physician interpreted the bone scans quantitatively as follows: the percent of involved bone was estimated for each individual bone, and the individual bone involvement was summed to calculate a global percent bone scan index (BSI). […]

CCCCN(CCCC)C(=O)CN1C[C@H](c2ccc3c(c2)OCO3)[C@@H](C(=O)O)[C@@H]1c1ccc(OC)cc1 [ABT-627]
average change in baseline for Interleukin-6 [1]: lower | BAP levels [2]: decreased | average change from baseline for Chromagranin-A [3]: higher | Crosslinked N-telopeptide levels [4]: decreased | average change from baseline for acid phosphatase [5]: decreased | rate of increase for acid phosphatase [5]: decreased | VAS scores (pain) [6]: decrease in pain | rate of increase of PSA in the serum samples [7]: decreases | proportion of total skeketal involvement [8]: decrease in the proportion of total skeketal involvement
